Laboratory results as given in paper PMC9482650, “Quantitative fragmentomics allow affinity mapping of interactomes” (Nature Communications, 2022).
Where two headings read alike, the source gives them in different places. Ends that are not written are not given here.

What was measured:
Type in all cases: binding
NHERF3_1 PDZ = molecular target: T1, NHERF3_1 PDZ (Homo sapiens, UniProt Q5T2W1); assay: Holdup assay
T1 sequence (Q5T2W1 9-90 limits assumed): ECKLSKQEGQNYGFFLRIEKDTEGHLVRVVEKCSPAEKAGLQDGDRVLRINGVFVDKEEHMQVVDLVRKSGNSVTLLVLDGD

MAGI1_2 PDZ = MAGI1_2 PDZ (Homo sapiens, UniProt Q96QZ7); assay: biochemical
Sequence of MAGI1_2 PDZ (Q96QZ7 472-554 limits assumed): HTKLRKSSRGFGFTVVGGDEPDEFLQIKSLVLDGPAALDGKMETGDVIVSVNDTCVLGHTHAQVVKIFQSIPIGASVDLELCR

SYNJ2BP PDZ = molecular target: T2, SYNJ2BP PDZ (Homo sapiens, UniProt P57105); assay: Holdup assay
T2 sequence (P57105 13-100 limits assumed): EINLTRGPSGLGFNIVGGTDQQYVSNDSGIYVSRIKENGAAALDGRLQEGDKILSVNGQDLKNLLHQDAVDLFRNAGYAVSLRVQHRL

DLG3_2 PDZ = molecular target: T3, DLG3_2 PDZ (Homo sapiens, UniProt Q92796); assay: Holdup assay
T3 sequence (Q92796 226-311 limits assumed): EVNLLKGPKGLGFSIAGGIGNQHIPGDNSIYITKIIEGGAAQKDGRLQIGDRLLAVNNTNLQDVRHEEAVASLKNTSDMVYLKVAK

SCRIB_3 PDZ = molecular target: T4, SCRIB_3 PDZ (Homo sapiens, UniProt Q14160); assay: Holdup assay
T4 sequence (Q14160 1004-1093 limits assumed): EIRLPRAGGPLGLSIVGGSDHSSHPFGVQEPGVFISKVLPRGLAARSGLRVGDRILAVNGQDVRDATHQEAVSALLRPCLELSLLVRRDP

SCRIB_1 PDZ = SCRIB_1 PDZ (Homo sapiens, UniProt Q14160); assay: Holdup assay
Sequence of SCRIB_1 PDZ (Q14160 728-815 limits assumed): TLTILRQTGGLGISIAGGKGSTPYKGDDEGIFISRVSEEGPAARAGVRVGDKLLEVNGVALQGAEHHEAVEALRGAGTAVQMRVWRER

PTPN3 PDZ = molecular target: T5, PTPN3 PDZ (Homo sapiens, UniProt P26045); assay: Holdup assay
T5 sequence (P26045 510-582 limits assumed): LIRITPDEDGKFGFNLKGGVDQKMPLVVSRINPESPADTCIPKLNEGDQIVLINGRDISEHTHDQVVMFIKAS

MAST1 PDZ = MAST1 PDZ (Homo sapiens, UniProt Q9Y2H9); assay: Holdup assay
Sequence of MAST1 PDZ (Q9Y2H9 967-1055 limits assumed): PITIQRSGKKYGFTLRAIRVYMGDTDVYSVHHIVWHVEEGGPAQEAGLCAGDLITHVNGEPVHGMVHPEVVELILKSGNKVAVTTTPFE

TX1BP3 PDZ = molecular target: T6, TX1BP3 PDZ (Homo sapiens, UniProt O14907); assay: Holdup assay
T6 sequence (O14907 15-112 limits assumed): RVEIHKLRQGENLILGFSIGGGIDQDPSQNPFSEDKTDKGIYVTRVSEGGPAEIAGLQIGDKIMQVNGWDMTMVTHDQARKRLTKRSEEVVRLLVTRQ

SNTG2 PDZ = molecular target: T7, SNTG2 PDZ (Homo sapiens, UniProt Q9NY99); assay: Holdup assay
T7 sequence (Q9NY99 73-156 limits assumed): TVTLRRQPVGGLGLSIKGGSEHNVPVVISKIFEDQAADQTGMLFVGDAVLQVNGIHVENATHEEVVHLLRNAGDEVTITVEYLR

SNTB1 PDZ = molecular target: T8, SNTB1 PDZ (Homo sapiens, UniProt Q13884); assay: Holdup assay
T8 sequence (Q13884 112-195 limits assumed): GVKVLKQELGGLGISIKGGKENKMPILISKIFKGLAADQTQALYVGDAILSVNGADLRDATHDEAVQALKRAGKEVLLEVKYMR

RHPN1 PDZ = RHPN1 PDZ (Homo sapiens, UniProt Q8TCX5); assay: Holdup assay
Sequence of RHPN1 PDZ (Q8TCX5 513-592 limits assumed): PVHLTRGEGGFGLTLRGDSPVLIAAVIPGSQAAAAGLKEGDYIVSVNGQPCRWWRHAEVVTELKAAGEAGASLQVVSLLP

ARHGEF11 PDZ = molecular target: T9, ARHGEF11 PDZ (Homo sapiens, UniProt O15085); assay: Holdup assay
T9 sequence (O15085 47-126 limits assumed): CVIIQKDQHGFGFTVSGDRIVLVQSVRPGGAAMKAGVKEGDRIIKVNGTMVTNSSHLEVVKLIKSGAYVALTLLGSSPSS

TJP2_1 PDZ = TJP2_1 PDZ (Homo sapiens, UniProt Q9UDY2); assay: Holdup assay
Sequence of TJP2_1 PDZ (Q9UDY2 33-120 limits assumed): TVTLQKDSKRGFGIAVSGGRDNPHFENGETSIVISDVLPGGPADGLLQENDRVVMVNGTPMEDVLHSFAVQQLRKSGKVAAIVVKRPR

RADIL PDZ = RADIL PDZ (Homo sapiens, UniProt Q96JH8); assay: Holdup assay
Sequence of RADIL PDZ (Q96JH8 976-1061 limits assumed): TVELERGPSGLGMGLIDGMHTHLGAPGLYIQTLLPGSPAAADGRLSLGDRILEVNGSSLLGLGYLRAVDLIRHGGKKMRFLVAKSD

DLG2_3 PDZ = molecular target: T10, DLG2_3 PDZ (Homo sapiens, UniProt Q15700); assay: Holdup assay
T10 sequence (Q15700 421-501 limits assumed): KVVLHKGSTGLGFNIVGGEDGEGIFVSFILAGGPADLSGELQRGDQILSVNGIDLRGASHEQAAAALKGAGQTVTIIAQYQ

DLG1_3 PDZ = DLG1_3 PDZ (Homo sapiens, UniProt Q12959); assay: Holdup assay
Sequence of DLG1_3 PDZ (Q12959 466-546 limits assumed): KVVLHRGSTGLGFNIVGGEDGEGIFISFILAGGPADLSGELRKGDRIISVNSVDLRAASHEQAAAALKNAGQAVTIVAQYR

MAGI2_3 PDZ = MAGI2_3 PDZ (Homo sapiens, UniProt Q86UL8); assay: Holdup assay
Sequence of MAGI2_3 PDZ (Q86UL8 605-683 limits assumed): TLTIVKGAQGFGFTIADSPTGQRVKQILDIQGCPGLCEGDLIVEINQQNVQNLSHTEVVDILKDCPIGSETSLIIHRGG

LRRC7 PDZ = LRRC7 PDZ (Homo sapiens, UniProt Q96NW7); assay: Holdup assay
Sequence of LRRC7 PDZ (Q96NW7 1450-1535 limits assumed): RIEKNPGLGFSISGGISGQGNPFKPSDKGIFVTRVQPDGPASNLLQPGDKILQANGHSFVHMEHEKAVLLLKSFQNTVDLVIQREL

FRMPD2_1 PDZ = FRMPD2_1 PDZ (Homo sapiens, UniProt Q68DX3); assay: Holdup assay
Sequence of FRMPD2_1 PDZ (Q68DX3 775-861 limits assumed): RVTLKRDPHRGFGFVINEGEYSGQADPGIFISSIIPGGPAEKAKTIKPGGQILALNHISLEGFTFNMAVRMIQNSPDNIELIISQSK

LIN7A PDZ = LIN7A PDZ (Homo sapiens, UniProt O14910); assay: Holdup assay
Sequence of LIN7A PDZ (O14910 108-190 limits assumed): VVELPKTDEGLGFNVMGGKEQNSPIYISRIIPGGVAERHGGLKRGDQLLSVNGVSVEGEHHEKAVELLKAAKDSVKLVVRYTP

CNKSR3 PDZ = CNKSR3 PDZ (Homo sapiens, UniProt Q6P9H4); assay: Holdup assay
Sequence of CNKSR3 PDZ (Q6P9H4 211-293 limits assumed): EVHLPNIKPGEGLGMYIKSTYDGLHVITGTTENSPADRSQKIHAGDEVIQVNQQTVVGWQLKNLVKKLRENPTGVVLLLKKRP
From the text: Supplement 41467_2022_33018_MOESM4_ESM.xlsx, sheet "PPI_convert" | column: CNKSR3

DLG2_1 PDZ = DLG2_1 PDZ (Homo sapiens, UniProt Q15700); assay: Holdup assay
Sequence of DLG2_1 PDZ (Q15700 98-184): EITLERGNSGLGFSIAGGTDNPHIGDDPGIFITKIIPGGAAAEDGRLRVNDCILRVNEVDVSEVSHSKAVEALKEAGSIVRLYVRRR

GIPC1 PDZ = GIPC1 PDZ (Homo sapiens, UniProt O14908); assay: Holdup assay
Sequence of GIPC1 PDZ (O14908 133-213 limits assumed): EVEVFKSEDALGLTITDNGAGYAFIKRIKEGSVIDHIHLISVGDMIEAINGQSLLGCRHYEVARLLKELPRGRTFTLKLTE
From the text: Supplement 41467_2022_33018_MOESM4_ESM.xlsx, sheet "PPI_convert" | column: GIPC1

LNX1_4 PDZ = LNX1_4 PDZ (Homo sapiens, UniProt Q8TBB1); assay: Holdup assay
Sequence of LNX1_4 PDZ (Q8TBB1 638-724 limits assumed): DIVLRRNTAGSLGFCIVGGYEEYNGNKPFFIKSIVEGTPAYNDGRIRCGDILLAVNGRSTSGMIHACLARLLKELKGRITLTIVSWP

MAGI1_5 PDZ = MAGI1_5 PDZ (Homo sapiens, UniProt Q96QZ7); assay: Holdup assay; details: sheet PPI_convert; read-out: affinity to PDZ MAGI1_5 (converted)
Sequence of MAGI1_5 PDZ (Q96QZ7 970-1066 limits assumed): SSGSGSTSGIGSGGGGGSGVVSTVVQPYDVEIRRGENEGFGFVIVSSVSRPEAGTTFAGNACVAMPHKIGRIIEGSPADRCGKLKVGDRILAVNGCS

MAGIX PDZ = MAGIX PDZ (Homo sapiens, UniProt Q9H6Y5); assay: Holdup assay; details: sheet PPI_convert; read-out: affinity to PDZ MAGIX (converted)
Sequence of MAGIX PDZ (Q9H6Y5 125-209): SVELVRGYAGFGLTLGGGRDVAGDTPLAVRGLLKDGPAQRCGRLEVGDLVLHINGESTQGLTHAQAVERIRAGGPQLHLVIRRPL
From the text: Supplement 41467_2022_33018_MOESM4_ESM.xlsx, sheet "PPI_convert" | column: MAGIX

[1] = composite holdup affinity, 0.00=below quantification threshold, read-out: COMP pKd (converted)

Compound: CC(C)C[C@H](NC(=O)[C@@H](N)CCCNC(=N)N)C(=O)N[C@@H](CCC(N)=O)C(=O)N[C@@H](CCCNC(=N)N)C(=O)N[C@@H](CCCNC(=N)N)C(=O)N[C@@H](CCCNC(=N)N)C(=O)N[C@@H](CCC(=O)O)C(=O)N[C@H](C(=O)N[C@@H](CCC(N)=O)C(=O)N[C@H](C(=O)O)C(C)C)[C@@H](C)O [HPV18-E6]
- Kd (NHERF3_1 PDZ): 89.1 µM
- Kd (MAGI1_2 PDZ): 1.07 µM
- Kd (SYNJ2BP PDZ): 4.47 µM
- Kd (DLG3_2 PDZ): 3.47 µM
- Kd (SCRIB_3 PDZ): 14.5 µM
- Kd (SCRIB_1 PDZ): 55 µM
- Kd (PTPN3 PDZ): 32.4 µM
- Kd (MAST1 PDZ): 4.68 µM
- Kd (TX1BP3 PDZ): 21.9 µM
- Kd (SNTG2 PDZ): 93.3 µM
- Kd (SNTB1 PDZ): 5.89 µM
- Kd (RHPN1 PDZ): 234 µM
- Kd (ARHGEF11 PDZ): 219 µM
- Kd (TJP2_1 PDZ): 129 µM
- Kd (RADIL PDZ): 525 µM
- Kd (DLG2_3 PDZ): 8.71 µM
- Kd (DLG1_3 PDZ): 9.55 µM
- Kd (MAGI2_3 PDZ): 70.8 µM
- Kd (LRRC7 PDZ): 724 µM
- Kd (FRMPD2_1 PDZ): 79.4 µM
- Kd (LIN7A PDZ): 398 µM
- Kd (CNKSR3 PDZ): 79.4 µM
- Kd (DLG2_1 PDZ): 7.76 µM
- Kd (GIPC1 PDZ): 36.3 µM
- Kd (LNX1_4 PDZ): 93.3 µM

Compound: SKPTRRETEV [HPV35-E6]
- Kd (NHERF3_1 PDZ; [1]): 91.2 µM
- Kd (MAGI1_2 PDZ; [1]): 7.41 µM
- Kd (SYNJ2BP PDZ; [1]): 2.04 µM
- Kd (DLG3_2 PDZ; [1]): 3.24 µM
- Kd (SCRIB_3 PDZ; [1]): 12.9 µM
- Kd (SCRIB_1 PDZ; [1]): 27.5 µM
- Kd (PTPN3 PDZ; [1]): 11.7 µM
- Kd (TX1BP3 PDZ; [1]): 11.7 µM
- Kd (SNTG2 PDZ; [1]): 112 µM
- Kd (SNTB1 PDZ; [1]): 20.9 µM
- Kd (ARHGEF11 PDZ; [1]): 77.6 µM
- Kd (DLG2_3 PDZ; [1]): 4.9 µM
- Kd (DLG1_3 PDZ; [1]): 17 µM
- Kd (LRRC7 PDZ; [1]): 257 µM
- Kd (FRMPD2_1 PDZ; [1]): 324 µM
- Kd (CNKSR3 PDZ; sheet PPI_convert, read-out: affinity to PDZ CNKSR3 (converted)): 269 µM
- Kd (DLG2_1 PDZ; sheet PPI_convert, read-out: affinity to PDZ DLG2_1 (converted)): 12.3 µM
- Kd (GIPC1 PDZ; sheet PPI_convert, read-out: affinity to PDZ GIPC1 (converted)): 20.4 µM
- Kd (LNX1_4 PDZ; sheet PPI_convert, read-out: affinity to PDZ LNX1_4 (converted)): 324 µM
- Kd (MAGI1_5 PDZ): 37.2 µM
- Kd (MAGIX PDZ): 275 µM

Compound: SRRPRTETQV [HPV31-E6]
- Kd (NHERF3_1 PDZ; [1]): 47.9 µM
- Kd (MAGI1_2 PDZ; [1]): 2.88 µM
- Kd (SYNJ2BP PDZ; [1]): 3.89 µM
- Kd (DLG3_2 PDZ; [1]): 3.89 µM
- Kd (SCRIB_3 PDZ; [1]): 27.5 µM
- Kd (SCRIB_1 PDZ; [1]): 25.1 µM
- Kd (PTPN3 PDZ; [1]): 21.9 µM
- Kd (MAST1 PDZ; [1]): 38 µM
- Kd (TX1BP3 PDZ; [1]): 24.5 µM
- Kd (SNTG2 PDZ; [1]): 83.2 µM
- Kd (SNTB1 PDZ; [1]): 70.8 µM
- Kd (RHPN1 PDZ; [1]): 182 µM
- Kd (ARHGEF11 PDZ; [1]): 263 µM
- Kd (TJP2_1 PDZ; [1]): 219 µM
- Kd (DLG2_3 PDZ; [1]): 7.94 µM
- Kd (DLG1_3 PDZ; [1]): 25.1 µM
- Kd (MAGI2_3 PDZ; [1]): 79.4 µM
- Kd (LIN7A PDZ; [1]): 309 µM
